Like-named read-outs stand apart in the source and are kept apart here.
Test: Single oral dose human plasma pharmacokinetics of D, DA and DOH after Cogni.Q
Format: in vivo
Settings: human, plasma
From the text: Ten healthy male and 10 female subjects were recruited by public announcement in Amarillo, TX, from January 2013 to April 2013 (see Fig. 1 CONSORT diagram). The sample size for each gender was chosen without power calculation due to the lack of prior knowledge of PK parameter variance in humans. After receiving informed consent verbally and in writing, the health status of each candidate was confirmed by health questionnaire, plasma biochemistry (hepatic and renal functions), complete blood cell count (CBC), and a physical examination by a participating academic physician. Subjects with diabetes, or pregnant, perinatal and breastfeeding women were excluded. For the 48 hours preceding study visit until the final blood draw, all subjects were instructed to avoid taking any prescription or nonprescription drugs, vitamins, and herbal/dietary supplements. Each subject was compensated for participating in the study per TTUHSC IRB approved rate.
Eligible subjects arrived at our clinical facility at 0700 (7:00 am) on the test day after a fast beginning at 2200 (10:00 pm) the previous night. After a brief review of vital signs, the nurse placed an intravenous (IV) line with saline drip in one arm of each subject. A baseline pre-dose (hour 0) blood sample was drawn through the IV line; after that subjects swallowed four Cogni.Q vegicaps with 240 mL of water at hour 0 under direct supervision. Subjects stayed at the clinical facility in their room for the next 12 hours, returning at 24 and 48 hours. Blood was drawn at baseline (hour 0) and at 0.5, 1, 2, 3, 4, 6, 8, 12, 24 and 48 hours after dosing into Vacutainer Blood Collection Tube (Becton-Dickinson, Franklin Lakes, NJ. Product Number: 367874, Sodium heparin was used as anti-coagulant). Water was allowed as desired except for within the first hour after Cogni.Q consumption. All subjects received standardized meals at post-dose hours 4.5 and 9.5 but no food was allowed for at least the first 4 hours post-dose.
Plasma was prepared by centrifuging the heparinized blood at 1000 g for 15 minutes at room temperature. Urine samples (40mL) were collected within time spans of 0–4, 4–8, 8–12 and 12–24 hours (total volume of urine was recorded). All plasma and urine samples were put on dry ice immediately and then stored at -80°C freezer until analysis.
Plasma samples were extracted with a validated solid supported liquid extraction (SLE) method facilitated with a positive pressure manifold (Biotage, Charlotte, NC). Briefly, 100 μL of plasma sample was spiked with 5 μL of 10 ng/μL prednisolone (IS), diluted with 200 μL of LC-MS grade water, mixed and loaded onto ISOLUTE SLE+ 400 μL Array Well cartridges (Biotage, Charlotte, NC). A pulse of minimum positive pressure was applied to facilitate the samples absorption into the cartridges. After the samples were allowed to absorb for 5 min, the compounds were eluted with 2×500 μL tert-butyl methyl ether. The eluent was dried in a Speedvac and the resulting residue was reconstituted in 50 μL of methanol for UHPLC-MS/MS analysis.
Eight-point calibration curves were constructed for D, DA and DOH, at concentrations of 0.1, 0.5, 1, 5, 10, 20, 50 and 100 μg/L for D and DA, and at concentrations of 1, 5, 10, 50, 100, 200, 500 and 1000 μg/L for DOH, respectively. The linear range was 0.1–100 μg/L (0.3–300 nmol/L), 0.1–100 μg/L (0.3–300 nmol/L) and 1–1000 μg/L (4–4000 nmol/L) for D, DA and DOH, respectively. The inter- and intra-assay CV were lower than 6.5% and the accuracy was between 90–105%. Calibration curve was run for each batch of samples analyzed. The mean calibration curve correlation coefficient (r) for D, DA and DOH was 0.999, 0.999 and 0.998, respectively (data from 7–10 calibration curves). In addition, 70% of the plasma samples were extracted and analyzed twice, the data from two replicate analyses were nearly identical and combined for final data analyses and presentation. […]

CC1(C)Oc2cc3oc(=O)ccc3cc2C[C@@H]1O [DOH, decursinol]
half-life (oral, 4 Cogni.Q vegicaps, subject S9 (158 lb), read-out: Terminal t1/2, h (converted)): 462 min | Tmax (oral, 4 Cogni.Q vegicaps, subject S9 (158 lb), read-out: Tmax): 3 h | AUC(0-t) (oral, 4 Cogni.Q vegicaps, subject S10 (185 lb), read-out: AUC0-48h): 17400 nmol·h/L | Cmax (oral, 4 Cogni.Q vegicaps, subject S10 (185 lb), read-out: Cmax): 1610 nM | half-life (oral, 4 Cogni.Q vegicaps, subject S10 (185 lb), read-out: Terminal t1/2, h (converted)): 528 min | Tmax (oral, 4 Cogni.Q vegicaps, subject S10 (185 lb), read-out: Tmax): 2 h | AUC(0-t) (oral, 4 Cogni.Q vegicaps, subject S11 (178 lb), read-out: AUC0-48h): 37300 nmol·h/L | Cmax (oral, 4 Cogni.Q vegicaps, subject S11 (178 lb), read-out: Cmax): 3420 nM | half-life (oral, 4 Cogni.Q vegicaps, subject S11 (178 lb), read-out: Terminal t1/2, h (converted)): 300 min | Tmax (oral, 4 Cogni.Q vegicaps, subject S11 (178 lb), read-out: Tmax): 2 h | AUC(0-t) (oral, 4 Cogni.Q vegicaps, subject S12 (169 lb), read-out: AUC0-48h): 29100 nmol·h/L | Cmax (oral, 4 Cogni.Q vegicaps, subject S12 (169 lb), read-out: Cmax): 2590 nM | half-life (oral, 4 Cogni.Q vegicaps, subject S12 (169 lb), read-out: Terminal t1/2, h (converted)): 474 min | Tmax (oral, 4 Cogni.Q vegicaps, subject S12 (169 lb), read-out: Tmax): 4 h | AUC(0-t) (oral, 4 Cogni.Q vegicaps, subject S13 (192 lb), read-out: AUC0-48h): 26100 nmol·h/L | Cmax (oral, 4 Cogni.Q vegicaps, subject S13 (192 lb), read-out: Cmax): 2420 nM | half-life (oral, 4 Cogni.Q vegicaps, subject S13 (192 lb), read-out: Terminal t1/2, h (converted)): 360 min | Tmax (oral, 4 Cogni.Q vegicaps, subject S13 (192 lb), read-out: Tmax): 2 h | AUC(0-t) (oral, 4 Cogni.Q vegicaps, subject S14 (200 lb), read-out: AUC0-48h): 25700 nmol·h/L | Cmax (oral, 4 Cogni.Q vegicaps, subject S14 (200 lb), read-out: Cmax): 3340 nM | half-life (oral, 4 Cogni.Q vegicaps, subject S14 (200 lb), read-out: Terminal t1/2, h (converted)): 318 min | Tmax (oral, 4 Cogni.Q vegicaps, subject S14 (200 lb), read-out: Tmax): 2 h | AUC(0-t) (oral, 4 Cogni.Q vegicaps, subject S15 (177 lb), read-out: AUC0-48h): 26100 nmol·h/L | Cmax (oral, 4 Cogni.Q vegicaps, subject S15 (177 lb), read-out: Cmax): 4020 nM | half-life (oral, 4 Cogni.Q vegicaps, subject S15 (177 lb), read-out: Terminal t1/2, h (converted)): 270 min | Tmax (oral, 4 Cogni.Q vegicaps, subject S15 (177 lb), read-out: Tmax): 1 h | Tmax (oral, 4 Cogni.Q vegicaps, subject S16 (175 lb), read-out: Tmax): 2 h | AUC(0-t) (oral, 4 Cogni.Q vegicaps, subject S17 (147 lb), read-out: AUC0-48h): 46700 nmol·h/L | Cmax (oral, 4 Cogni.Q vegicaps, subject S17 (147 lb), read-out: Cmax): 3740 nM | half-life (oral, 4 Cogni.Q vegicaps, subject S17 (147 lb), read-out: Terminal t1/2, h (converted)): 612 min | Tmax (oral, 4 Cogni.Q vegicaps, subject S17 (147 lb), read-out: Tmax): 2 h | half-life (oral, 4 Cogni.Q vegicaps, subject S18 (180 lb), outlier, excluded from means, read-out: Terminal t1/2, h (converted)): 960 min | AUC(0-t) (oral, 4 Cogni.Q vegicaps, subject S18 (180 lb), read-out: AUC0-48h): 16500 nmol·h/L | Cmax (oral, 4 Cogni.Q vegicaps, subject S18 (180 lb), read-out: Cmax): 1160 nM | Tmax (oral, 4 Cogni.Q vegicaps, subject S18 (180 lb), read-out: Tmax): 3 h | AUC(0-t) (oral, 4 Cogni.Q vegicaps, subject S19 (130 lb), read-out: AUC0-48h): 21400 nmol·h/L | Cmax (oral, 4 Cogni.Q vegicaps, subject S19 (130 lb), read-out: Cmax): 2270 nM | half-life (oral, 4 Cogni.Q vegicaps, subject S19 (130 lb), read-out: Terminal t1/2, h (converted)): 396 min | Tmax (oral, 4 Cogni.Q vegicaps, subject S19 (130 lb), read-out: Tmax): 6 h | half-life (oral, subject S16 (175 lb), outlier, excluded from means, read-out: Terminal t1/2, h (converted)): 900 min | AUC(0-t) (oral, subject S16 (175 lb), read-out: AUC0-48h): 16300 nmol·h/L | Cmax (oral, subject S16 (175 lb), read-out: Cmax): 1800 nM | AUC(0-t) (oral, subject S20 (200 lb), read-out: AUC0-48h): 17900 nmol·h/L | Cmax (oral, subject S20 (200 lb), read-out: Cmax): 1330 nM | half-life (oral, subject S20 (200 lb), read-out: Terminal t1/2, h (converted)): 576 min | Tmax (oral, subject S20 (200 lb), read-out: Tmax): 2 h | AUC(0-t) (male, oral, 4 Cogni.Q vegicaps, Men n=10 (S1 Table), read-out: AUC0-48h, Mean): 22500 nmol·h/L | Cmax (male, oral, 4 Cogni.Q vegicaps, Men n=10 (S1 Table), read-out: Cmax, nM, Mean): 2350 nM | Tmax (male, oral, 4 Cogni.Q vegicaps, Men n=10 (S1 Table), read-out: Tmax, h, Mean): 2.4 h | half-life (male, oral, Men, outliers excluded (S1 Table), read-out: Terminal t1/2, h, Mean (converted)): 396 min | AUC(0-t) (male, po, Men N = 10, single oral dose Cogni.Q, read-out: AUC0–48h, h.nmol/L Mean (SD)): 22500 nmol·h/L | Cmax (male, po, Men N = 10, single oral dose Cogni.Q, read-out: Cmax, nmol/L, Mean (SD)): 2350 nM | Tmax (male, po, Men N = 10, single oral dose Cogni.Q, read-out: Tmax, h, Mean (SD)): 2.4 h | half-life (male, po, Men, outlier subjects excluded, single oral dose Cogni.Q, read-out: T1/2, h, terminal Mean (SD) (converted)): 396 min

Source: paper PMC4335020, “Single Oral Dose Pharmacokinetics of Decursin and Decursinol Angelate in Healthy Adult Men and Women” (PLoS ONE, 2015)
